This note sets out measurements from US20240108006A1, “PESTICIDALLY ACTIVE HETEROAROMATIC COMPOUNDS” (SYNGENTA CROP PROTECTION AG, priority 2021, published 2024).

What all share (assay type): in vivo
One assay relates to Plutella xylostella. Kind of assay: Example B8: Plutella xylostella (diamond back moth), artificial diet 24-well, eggs. The note with it: 192 h, application rate of 200 ppm, 8 days after infestation, read-out: effect in at least one of the two categories (mortality or growth inhibition). On the procedure: Example B8: Plutella xylostella (Diamond Back Moth)
24-well microtiter plates with artificial diet were treated with aqueous test solutions prepared from 10,000 ppm DMSO stock solutions by pipetting. After drying, Plutella eggs were pipetted through a plastic stencil onto a gel blotting paper and the plate was closed with it. The samples were assessed for mortality and growth inhibition in comparison to untreated samples 8 days after infestation.
The following compounds gave an effect of at least 80% in at least one of the two categories (mortality or growth inhibition) at an application rate of 200 ppm: […]

The subject of another assay is Chilo suppressalis. Kind of assay: Example B1: Chilo suppressalis (striped rice stemborer), artificial diet, L2 larvae. The note with it: 144 h, application rate of 200 ppm, 6 days after infestation, read-out: control in at least one of the three categories (mortality, anti-feedant effect, or growth inhibition). On the procedure: Example B1: Chilo suppressalis (Striped Rice Stemborer)
24-well microtiter plates with artificial diet were treated with aqueous test solutions prepared from 10,000 ppm DMSO stock solutions by pipetting. After drying, the plates were infested with L2 larvae (6-8 per well). The samples were assessed for mortality, anti-feeding effect, and growth inhibition in comparison to untreated samples 6 days after infestation. Control of Chilo suppressalis by a test sample is given when at least one of the categories mortality, anti-feedant effect, and growth inhibition is higher than the untreated sample.

The test system of another assay is Spodoptera littoralis. Kind of assay: Example B9: Spodoptera littoralis (Egyptian cotton leaf worm), cotton leaf discs, L1 larvae. To be noted: foliar, 72 h, application rate of 200 ppm, 3 days after infestation, read-out: control in at least one of the three categories (mortality, anti-feedant effect, or growth inhibition). As for the experimental part: Example B9: Spodoptera littoralis (Egyptian Cotton Leaf Worm)
Cotton leaf discs were placed onto agar in 24-well microtiter plates and sprayed with aqueous test solutions prepared from 10,000 ppm DMSO stock solutions. After drying the leaf discs were infested with five L1 larvae. The samples were assessed for mortality, anti-feeding effect, and growth inhibition in comparison to untreated samples 3 days after infestation. Control of Spodoptera littoralis by a test sample is given when at least one of the categories mortality, anti-feedant effect, and growth inhibition is higher than the untreated sample.

A value given as a limit tells only on which side of the number the result lay.

For `C[C@H](NC(=O)Nc1ccccc1OC(F)F)c1ncnn1-c1ncccn1` [Example P107, 1-[2-(difluoromethoxy)phenyl]-3-[(1S)-1-(2-pyrimidin-2-yl-1,2,4-triazol-3-yl)ethyl]urea], the percent effect (mortality or growth inhibition) at 200 ppm with Plutella xylostella is no less than 80%. Further, in the assay with Chilo suppressalis, the percent control (mortality, anti-feedant effect or growth inhibition) at 200 ppm was no less than 80%.
Consider `C[C@H](NC(=O)Nc1cc(C(F)(F)F)c(Cl)cc1Cl)c1ncnn1-c1ncc(C(=O)N(C)C)s1` [Example P170, 2-[5-[(1S)-1-[[2,4-dichloro-5-(trifluoromethyl)phenyl]carbamoyl-amino]ethyl]-1,2,4-triazol-1-yl]-N, N-dimethyl-thiazole-5-carboxamide], for which the percent effect (mortality or growth inhibition) at 200 ppm in the assay on Plutella xylostella was no less than 80%. In addition, the percent control (mortality, anti-feedant effect or growth inhibition) at 200 ppm in the assay with Chilo suppressalis is no less than 80%.
On to `C[C@H](NC(=O)N1CCc2ccc(C(F)(F)F)cc21)c1ncnn1-c1ncccn1` [Example P50, N-[(1S)-1-(2-pyrimidin-2-yl-1,2,4-triazol-3-yl)ethyl]-6-(trifluoromethyl)indoline-1-carboxamide], for which, in the assay with Plutella xylostella, the percent effect (mortality or growth inhibition) at 200 ppm is no less than 80%. Further, the percent control (mortality, anti-feedant effect or growth inhibition) at 200 ppm in the assay with Chilo suppressalis was no less than 80%.
With `C[C@H](NC(=O)Nc1cc(F)c(Cl)cc1I)c1ncnn1-c1ncccn1` [Example P376, 1-(4-chloro-5-fluoro-2-iodo-phenyl)-3-[(1S)-1-(2-pyrimidin-2-yl-1,2,4-triazol-3-yl)ethyl]urea], the percent effect (mortality or growth inhibition) at 200 ppm with Plutella xylostella was no less than 80%. For the same compound, the percent control (mortality, anti-feedant effect or growth inhibition) at 200 ppm in the assay on Chilo suppressalis was no less than 80%.
For the compound `C[C@@H](c1ncnn1-c1ncccn1)N(C)C(=O)N(C)c1cnc(C(F)(F)F)cc1Cl` [Example P270, 1-[4-chloro-6-(trifluoromethyl)-3-pyridyl]-1,3-dimethyl-3-[(1S)-1-(2-pyrimidin-2-yl-1,2,4-triazol-3-yl)ethyl]urea], the percent effect (mortality or growth inhibition) at 200 ppm in the assay on Plutella xylostella is no less than 80%. Further, the percent control (mortality, anti-feedant effect or growth inhibition) at 200 ppm in the assay on Chilo suppressalis is no less than 80%.
As to `C[C@H](NC(=O)N1CCc2cc(Br)ccc21)c1ncnn1-c1ncccn1` [Example P102, 5-bromo-N-[(1S)-1-(2-pyrimidin-2-yl-1,2,4-triazol-3-yl)ethyl]indoline-1-carboxamide], the percent control (mortality, anti-feedant effect or growth inhibition) at 200 ppm with Spodoptera littoralis is no less than 80%.
Take `C[C@H](NC(=O)Nc1ccc(C(F)(F)F)c(Cl)c1)c1ncnn1-c1ncccn1` [Example P128, 1-[3-chloro-4-(trifluoromethyl)phenyl]-3-[(1S)-1-(2-pyrimidin-2-yl-1,2,4-triazol-3-yl)ethyl]urea]: the percent effect (mortality or growth inhibition) at 200 ppm with Plutella xylostella was no less than 80%. Moreover, in the assay with Chilo suppressalis, the percent control (mortality, anti-feedant effect or growth inhibition) at 200 ppm was no less than 80%.
Consider `COc1cc(NC(=O)N[C@@H](C)c2ncnn2-c2ncccn2)c(Br)cc1Br` [Example P200, 1-(2,4-dibromo-5-methoxy-phenyl)-3-[(1S)-1-(2-pyrimidin-2-yl-1,2,4-triazol-3-yl)ethyl]urea], for which, in the assay on Plutella xylostella, the percent effect (mortality or growth inhibition) at 200 ppm is no less than 80%. Further, the percent control (mortality, anti-feedant effect or growth inhibition) at 200 ppm in the assay with Chilo suppressalis is no less than 80%.
Regarding `COc1cc(NC(=O)N[C@@H](C)c2ncnn2-c2ncccn2)c(I)cc1Cl` [Example P288, 1-(4-chloro-2-iodo-5-methoxy-phenyl)-3-[(1S)-1-(2-pyrimidin-2-yl-1,2,4-triazol-3-yl)ethyl]urea], the percent effect (mortality or growth inhibition) at 200 ppm in the assay on Plutella xylostella was no less than 80%.
With `CC(C)OC(=O)c1cc(NC(=O)N[C@@H](C)c2ncnn2-c2ncccn2)c(F)cc1Cl` [Example P217, isopropyl 2-chloro-4-fluoro-5-[[(1S)-1-(2-pyrimidin-2-yl-1,2,4-triazol-3-yl)ethyl]carbamoylamino]benzoate], in the assay on Plutella xylostella, the percent effect (mortality or growth inhibition) at 200 ppm is no less than 80%. The percent control (mortality, anti-feedant effect or growth inhibition) at 200 ppm in the assay on Chilo suppressalis is no less than 80%.
As to `COc1cc(Br)c(Cl)cc1NC(=O)N[C@@H](C)c1ncnn1-c1ncccn1` [Example P368, 1-(4-bromo-5-chloro-2-methoxy-phenyl)-3-[(1S)-1-(2-pyrimidin-2-yl-1,2,4-triazol-3-yl)ethyl]urea], the percent effect (mortality or growth inhibition) at 200 ppm in the assay on Plutella xylostella is no less than 80%.
With `C[C@H](NC(=O)Nc1cc(OC(F)(F)C(F)F)c(Cl)cc1Cl)c1nccnc1-c1ccc(C#N)cn1` [Example P245, 1-[(1S)-1-[3-(5-cyano-2-pyridyl)pyrazin-2-yl]ethyl]-3-[2,4-dichloro-5-(1,1,2,2-tetrafluoroethoxy)phenyl]urea], in the assay on Plutella xylostella, the percent effect (mortality or growth inhibition) at 200 ppm is no less than 80%. In the assay on Chilo suppressalis, the percent control (mortality, anti-feedant effect or growth inhibition) at 200 ppm is no less than 80%.
For `Cc1cc(Br)c(Cl)cc1NC(=O)N[C@@H](C)c1ncnn1-c1ncccn1` [Example P299, 1-(4-bromo-5-chloro-2-methyl-phenyl)-3-[(1S)-1-(2-pyrimidin-2-yl-1,2,4-triazol-3-yl)ethyl]urea], in the assay on Plutella xylostella, the percent effect (mortality or growth inhibition) at 200 ppm is no less than 80%. For the same compound, the percent control (mortality, anti-feedant effect or growth inhibition) at 200 ppm in the assay on Chilo suppressalis was no less than 80%.
On to `C[C@H](NC(=O)Nc1ccc(C(F)(F)F)c(Cl)c1)c1nccnc1-c1ncccn1` [Example P10, 1-[3-chloro-4-(trifluoromethyl)phenyl]-3-[(1S)-1-(3-pyrimidin-2-ylpyrazin-2-yl)ethyl]urea], for which, in the assay with Plutella xylostella, the percent effect (mortality or growth inhibition) at 200 ppm is no less than 80%. The percent control (mortality, anti-feedant effect or growth inhibition) at 200 ppm with Chilo suppressalis was no less than 80%.
Turning to `C[C@H](NC(=O)Nc1c(Cl)cc(Cl)c(OC(F)(F)C(F)F)c1I)c1nccnc1-c1ccc(C#N)cn1` [Example P275, 1-[(1S)-1-[3-(5-cyano-2-pyridyl)pyrazin-2-yl]ethyl]-3-[4,6-dichloro-2-iodo-3-(1,1,2,2-tetrafluoroethoxy)phenyl]urea], in the assay on Plutella xylostella, the percent effect (mortality or growth inhibition) at 200 ppm was no less than 80%. In the assay with Chilo suppressalis, the percent control (mortality, anti-feedant effect or growth inhibition) at 200 ppm is no less than 80%.
Regarding `CC(NC(=O)Nc1ccc(Cl)c(C(F)(F)F)c1)c1nccnc1-n1nccn1` (centres unmarked) [Example P259, 1-[4-chloro-3-(trifluoromethyl)phenyl]-3-[1-[3-(triazol-2-yl)pyrazin-2-yl]ethyl]urea], in the assay with Plutella xylostella, the percent effect (mortality or growth inhibition) at 200 ppm was no less than 80%.
In the case of `C[C@H](NC(=O)Nc1ccc(Cl)cc1Oc1ccc(Cl)cc1)c1ncnn1-c1ncccn1` [Example P51, 1-[4-chloro-2-(4-chlorophenoxy)phenyl]-3-[(1S)-1-(2-pyrimidin-2-yl-1,2,4-triazol-3-yl)ethyl]urea], the percent effect (mortality or growth inhibition) at 200 ppm in the assay on Plutella xylostella is no less than 80%. For the same compound, in the assay with Chilo suppressalis, the percent control (mortality, anti-feedant effect or growth inhibition) at 200 ppm was no less than 80%.
Regarding `COC(=O)c1cc(NC(=O)N[C@@H](C)c2ncnn2-c2ncccn2)c(F)cc1Br` [Example P228, methyl 2-bromo-4-fluoro-5-[[(1S)-1-(2-pyrimidin-2-yl-1,2,4-triazol-3-yl)ethyl]carbamoylamino]benzoate], the percent effect (mortality or growth inhibition) at 200 ppm in the assay with Plutella xylostella was no less than 80%.
On the same count and under the same terms, the same measure for `CC(NC(=O)N1CCc2cc(C(F)(F)F)ncc21)c1ncnn1-c1ccc(C#N)cn1` (centres unmarked) [Example P171, N-[1-[2-(5-cyano-2-pyridyl)-1,2,4-triazol-3-yl]ethyl]-5-(trifluoromethyl)-2,3-dihydropyrrolo[2,3-c]pyridine-1-carboxamide]: no less than 80%; for `Cc1cc(Cl)c(Br)cc1NC(=O)N[C@@H](C)c1ncnn1-c1ncccn1` [Example P305, 1-(5-bromo-4-chloro-2-methyl-phenyl)-3-[(1S)-1-(2-pyrimidin-2-yl-1,2,4-triazol-3-yl)ethyl]urea]: no less than 80%.
With `C[C@H](NC(=O)Nc1ncc(C(F)(F)F)cc1Cl)c1ncnn1-c1ncccn1` [Example P25, 1-[3-chloro-5-(trifluoromethyl)-2-pyridyl]-3-[(1S)-1-(2-pyrimidin-2-yl-1,2,4-triazol-3-yl)ethyl]urea], the percent effect (mortality or growth inhibition) at 200 ppm in the assay with Plutella xylostella was no less than 80%. Further, the percent control (mortality, anti-feedant effect or growth inhibition) at 200 ppm in the assay on Chilo suppressalis was no less than 80%.
With `CC(NC(=O)Nc1cc(C(F)(F)F)c(Cl)cc1Br)c1nccnc1-n1nccn1` (centres unmarked) [Example P260, 1-[2-bromo-4-chloro-5-(trifluoromethyl)phenyl]-3-[1-[3-(triazol-2-yl)pyrazin-2-yl]ethyl]urea], in the assay on Plutella xylostella, the percent effect (mortality or growth inhibition) at 200 ppm is no less than 80%. Moreover, the percent control (mortality, anti-feedant effect or growth inhibition) at 200 ppm with Chilo suppressalis was no less than 80%.
With `C[C@H](NC(=O)Nc1ccc(C(F)(F)F)c(Cl)c1)c1nccnc1-c1ccc(C#N)cn1` [Example P9, 1-[3-chloro-4-(trifluoromethyl)phenyl]-3-[(1S)-1-[3-(5-cyano-2-pyridyl)pyrazin-2-yl]ethyl]urea], the percent effect (mortality or growth inhibition) at 200 ppm in the assay on Plutella xylostella was no less than 80%. Further, the percent control (mortality, anti-feedant effect or growth inhibition) at 200 ppm in the assay on Chilo suppressalis was no less than 80%.
With `COc1cc(NC(=O)N[C@@H](C)c2ncnn2-c2ncccn2)c(F)cc1Br` [Example P220, 1-(4-bromo-2-fluoro-5-methoxy-phenyl)-3-[(1S)-1-(2-pyrimidin-2-yl-1,2,4-triazol-3-yl)ethyl]urea], the percent effect (mortality or growth inhibition) at 200 ppm in the assay on Plutella xylostella is no less than 80%. The percent control (mortality, anti-feedant effect or growth inhibition) at 200 ppm in the assay with Chilo suppressalis is no less than 80%.
